# Bridge positions count the residues as written; N and C are the ends. Ends that are not written are not given here.
# System: patients with chronic idiopathic constipation (CIC)
# Assay: Second phase 3 CIC trial: CSBM weekly responders by week
# Format: in vivo, human
# Conditions: MRA
# Excerpt: Both trials include a two-week pre-treatment baseline period, a 12-week treatment period, and a two-week post-treatment period. The phase 3 CIC program was designed to support regulatory submission in the U. S.
# The primary endpoint for both trials is the proportion of durable overall responders (%), which is the current regulatory endpoint required for U.S. approval in CIC. The FDA has defined a durable overall responder as a patient who fulfills both ≧3 complete spontaneous bowel movements (CSBMs) per week plus an increase of ≧1 CSBM from baseline in the same week, for 9 out of the 12 treatment weeks. In addition, the same patient must be an overall responder for at least 3 of the last 4 treatment weeks in order to be considered a durable overall responder.
# Patients were selected using Rome 3 criteria modified for CIC and had (1) fewer than 3 defecations per week, (2) loose stools occurring rarely without laxatives, (3) inadequate criteria for irritable bowel syndrome with constipation (IBS-C), and (4) at least two of the following applied to at least 25% of defecations: (a) straining during evacuation, (b) lumpy or hard stools, (c) sensation of anorectal obstruction or blockage. Rome 3 requires patients to fulfill the criteria for the last 3 months with symptom onset at least 6 months prior to diagnosis.
# [1] = Post-Treatment Week 13, 3 mg, All Randomized (includes Duplicate Patients)
# [2] = Post-Treatment Week 13, 3 mg, ITT Population
# [3] = Post-Treatment Week 13, 3 mg, ITT Population-Excluding Duplicate Patients
# [4] = Post-Treatment Week 13, 6 mg, All Randomized (includes Duplicate Patients)
# [5] = Post-Treatment Week 13, 6 mg, ITT Population
# [6] = Post-Treatment Week 13, 6 mg, ITT Population-Excluding Duplicate Patients
# [7] = Post-Treatment Week 13, Active Combined, All Randomized (includes Duplicate Patients)
# [8] = Post-Treatment Week 13, Active Combined, ITT Population-Excluding Duplicate Patients
# [9] = Post-Treatment Week 13, Active Combined, ITT Population
# [10] = Post-Treatment Week 14, 3 mg, All Randomized (includes Duplicate Patients)
# [11] = Post-Treatment Week 14, 3 mg, ITT Population
# [12] = Post-Treatment Week 14, 3 mg, ITT Population-Excluding Duplicate Patients
# [13] = Post-Treatment Week 14, 6 mg, ITT Population
# [14] = Post-Treatment Week 14, 6 mg, ITT Population-Excluding Duplicate Patients
# [15] = Post-Treatment Week 14, Active Combined, ITT Population-Excluding Duplicate Patients
# [16] = Post-Treatment Week 14, Active Combined, ITT Population
# [17] = Week 1, 3 mg, ITT Population-Excluding Duplicate Patients
# [18] = Week 1, 6 mg, ITT Population-Excluding Duplicate Patients
# [19] = Week 1, Active Combined, ITT Population-Excluding Duplicate Patients
# [20] = Week 1, Active Combined, ITT Population
# [21] = Week 2, 3 mg, ITT Population-Excluding Duplicate Patients
substance,measurement,setting,value
"Asn^1-Asp^2-Glu^3-Cys^4-Glu^5-Leu^6-Cys^7-Val^8-Asn^9-Val^10-Ala^11-Cys^12-Thr^13-Gly^14-Cys^15-Leu^16 (NDECELCVNVACTGCL; disulfide 4-12, 7-15) [Plecanatide, uroguanylin analogue, guanylate cyclase-C agonist; (C4:C12, C7:C15) bicycle peptide]",Difference in Proportions (adjusted),"Post-Treatment Week 13, 3 mg minus placebo, All Randomized (includes Duplicate Patients)",0.042
same,Odds Ratio (adjusted),"Post-Treatment Week 13, 3 mg vs placebo, All Randomized (includes Duplicate Patients)",0.796
same,"CSBM Weekly Responders, n (%)",[1],125 (26.6) n (%)
same,"Non-Responders, n (%)",[1],345 (73.4) n (%)
same,"CSBM Weekly Responders, n (%)",[2],121 (27.3) n (%)
same,"Non-Responders, n (%)",[2],322 (72.7) n (%)
same,"CSBM Weekly Responders, n (%)",[3],119 (27.4) n (%)
same,"Non-Responders, n (%)",[3],315 (72.6) n (%)
same,Difference in Proportions (adjusted),"Post-Treatment Week 13, 6 mg minus placebo, All Randomized (includes Duplicate Patients)",0.003
same,Odds Ratio (adjusted),"Post-Treatment Week 13, 6 mg vs placebo, All Randomized (includes Duplicate Patients)",0.981
same,"CSBM Weekly Responders, n (%)",[4],107 (22.7) n (%)
same,"Non-Responders, n (%)",[4],364 (77.3) n (%)
same,"CSBM Weekly Responders, n (%)",[5],106 (23.6) n (%)
same,"Non-Responders, n (%)",[5],343 (76.4) n (%)
same,"CSBM Weekly Responders, n (%)",[6],105 (23.7) n (%)
same,"Non-Responders, n (%)",[6],338 (76.3) n (%)
same,"CSBM Weekly Responders, n (%)",[7],232 (24.7) n (%)
same,"Non-Responders, n (%)",[7],709 (75.3) n (%)
same,Difference in Proportions (adjusted),"Post-Treatment Week 13, 3 mg minus placebo, ITT Population-Excluding Duplicate Patients",0.045
same,Difference in Proportions (adjusted),"Post-Treatment Week 13, 3 mg minus placebo, ITT Population",0.044
same,Odds Ratio (adjusted),"Post-Treatment Week 13, 3 mg vs placebo, ITT Population-Excluding Duplicate Patients",0.786
same,Odds Ratio (adjusted),"Post-Treatment Week 13, 3 mg vs placebo, ITT Population",0.792
same,Difference in Proportions (adjusted),"Post-Treatment Week 13, 6 mg minus placebo, ITT Population-Excluding Duplicate Patients",0.008
same,Difference in Proportions (adjusted),"Post-Treatment Week 13, 6 mg minus placebo, ITT Population",0.007
same,Odds Ratio (adjusted),"Post-Treatment Week 13, 6 mg vs placebo, ITT Population-Excluding Duplicate Patients",0.954
same,Odds Ratio (adjusted),"Post-Treatment Week 13, 6 mg vs placebo, ITT Population",0.962
same,"CSBM Weekly Responders, n (%)",[8],224 (25.5) n (%)
same,"Non-Responders, n (%)",[8],653 (74.5) n (%)
same,"CSBM Weekly Responders, n (%)",[9],227 (25.4) n (%)
same,"Non-Responders, n (%)",[9],665 (74.6) n (%)
same,Difference in Proportions (adjusted),"Post-Treatment Week 14, 3 mg minus placebo, All Randomized (includes Duplicate Patients)",0.019
same,Odds Ratio (adjusted),"Post-Treatment Week 14, 3 mg vs placebo, All Randomized (includes Duplicate Patients)",0.886
same,"CSBM Weekly Responders, n (%)",[10],95 (20.2) n (%)
same,"Non-Responders, n (%)",[10],375 (79.8) n (%)
same,"CSBM Weekly Responders, n (%)",[11],94 (21.2) n (%)
same,"Non-Responders, n (%)",[11],349 (78.8) n (%)
same,"CSBM Weekly Responders, n (%)",[12],93 (21.4) n (%)
same,"Non-Responders, n (%)",[12],341 (78.6) n (%)
same,Difference in Proportions (adjusted),"Post-Treatment Week 14, 6 mg minus placebo, All Randomized (includes Duplicate Patients)",−0.003
same,Odds Ratio (adjusted),"Post-Treatment Week 14, 6 mg vs placebo, All Randomized (includes Duplicate Patients)",1.020
same,"CSBM Weekly Responders, n (%)","Post-Treatment Week 14, 6 mg, All Randomized (includes Duplicate Patients)",85 (18.0) n (%)
same,"CSBM Weekly Responders, n (%)",[13],83 (18.5) n (%)
same,"Non-Responders, n (%)",[13],366 (81.5) n (%)
same,"CSBM Weekly Responders, n (%)",[14],82 (18.5) n (%)
same,"Non-Responders, n (%)",[14],361 (81.5) n (%)
same,"CSBM Weekly Responders, n (%)","Post-Treatment Week 14, Active Combined, All Randomized (includes Duplicate Patients)",180 (19.1) n (%)
same,Difference in Proportions (adjusted),"Post-Treatment Week 14, 3 mg minus placebo, ITT Population-Excluding Duplicate Patients",0.024
same,Difference in Proportions (adjusted),"Post-Treatment Week 14, 3 mg minus placebo, ITT Population",0.026
same,Odds Ratio (adjusted),"Post-Treatment Week 14, 3 mg vs placebo, ITT Population-Excluding Duplicate Patients",0.860
same,Odds Ratio (adjusted),"Post-Treatment Week 14, 3 mg vs placebo, ITT Population",0.852
same,Difference in Proportions (adjusted),"Post-Treatment Week 14, 6 mg minus placebo, ITT Population-Excluding Duplicate Patients",−0.005
same,Difference in Proportions (adjusted),"Post-Treatment Week 14, 6 mg minus placebo, ITT Population",−0.002
same,Odds Ratio (adjusted),"Post-Treatment Week 14, 6 mg vs placebo, ITT Population-Excluding Duplicate Patients",1.032
same,Odds Ratio (adjusted),"Post-Treatment Week 14, 6 mg vs placebo, ITT Population",1.011
same,"CSBM Weekly Responders, n (%)",[15],175 (20.0) n (%)
same,"Non-Responders, n (%)",[15],702 (80.0) n (%)
same,"CSBM Weekly Responders, n (%)",[16],177 (19.8) n (%)
same,"Non-Responders, n (%)",[16],715 (80.2) n (%)
same,Difference in Proportions (adjusted),"Week 1, 3 mg minus placebo, All Randomized (includes Duplicate Patients)",0.123
same,Odds Ratio (adjusted),"Week 1, 3 mg vs placebo, All Randomized (includes Duplicate Patients)",0.468
same,"Non-Responders, n (%)","Week 1, 3 mg, All Randomized (includes Duplicate Patients)",342 (72.8) n (%)
same,"CSBM Weekly Responders, n (%)","Week 1, 3 mg, ITT Population",121 (27.3) n (%)
same,"Non-Responders, n (%)","Week 1, 3 mg, ITT Population",322 (72.7) n (%)
same,"CSBM Weekly Responders, n (%)",[17],121 (27.9) n (%)
same,"Non-Responders, n (%)",[17],313 (72.1) n (%)
same,Difference in Proportions (adjusted),"Week 1, 6 mg minus placebo, All Randomized (includes Duplicate Patients)",0.106
same,Odds Ratio (adjusted),"Week 1, 6 mg vs placebo, All Randomized (includes Duplicate Patients)",0.513
same,"Non-Responders, n (%)","Week 1, 6 mg, All Randomized (includes Duplicate Patients)",351 (74.5) n (%)
same,"CSBM Weekly Responders, n (%)","Week 1, 6 mg, ITT Population",114 (25.4) n (%)
same,"Non-Responders, n (%)","Week 1, 6 mg, ITT Population",335 (74.6) n (%)
same,"CSBM Weekly Responders, n (%)",[18],114 (25.7) n (%)
same,"Non-Responders, n (%)",[18],329 (74.3) n (%)
same,"Non-Responders, n (%)","Week 1, Active Combined, All Randomized (includes Duplicate Patients)",693 (73.6) n (%)
same,Difference in Proportions (adjusted),"Week 1, 3 mg minus placebo, ITT Population-Excluding Duplicate Patients",0.123
same,Difference in Proportions (adjusted),"Week 1, 3 mg minus placebo, ITT Population",0.118
same,Odds Ratio (adjusted),"Week 1, 3 mg vs placebo, ITT Population-Excluding Duplicate Patients",0.477
same,Odds Ratio (adjusted),"Week 1, 3 mg vs placebo, ITT Population",0.488
same,Difference in Proportions (adjusted),"Week 1, 6 mg minus placebo, ITT Population-Excluding Duplicate Patients",0.102
same,Difference in Proportions (adjusted),"Week 1, 6 mg minus placebo, ITT Population",0.099
same,Odds Ratio (adjusted),"Week 1, 6 mg vs placebo, ITT Population-Excluding Duplicate Patients",0.533
same,Odds Ratio (adjusted),"Week 1, 6 mg vs placebo, ITT Population",0.539
same,"CSBM Weekly Responders, n (%)",[19],235 (26.8) n (%)
same,"Non-Responders, n (%)",[19],642 (73.2) n (%)
same,"CSBM Weekly Responders, n (%)",[20],235 (26.3) n (%)
same,"Non-Responders, n (%)",[20],657 (73.7) n (%)
same,Difference in Proportions (adjusted),"Week 2, 3 mg minus placebo, All Randomized (includes Duplicate Patients)",0.089
same,Odds Ratio (adjusted),"Week 2, 3 mg vs placebo, All Randomized (includes Duplicate Patients)",0.582
same,"CSBM Weekly Responders, n (%)","Week 2, 3 mg, All Randomized (includes Duplicate Patients)",120 (25.5) n (%)
same,"CSBM Weekly Responders, n (%)","Week 2, 3 mg, ITT Population",112 (25.3) n (%)
same,"Non-Responders, n (%)","Week 2, 3 mg, ITT Population",331 (74.7) n (%)
same,"CSBM Weekly Responders, n (%)",[21],110 (25.3) n (%)
same,"Non-Responders, n (%)",[21],324 (74.7) n (%)

# — patent US20160367623A1, “AGONISTS OF GUANYLATE CYCLASE USEFUL FOR THE TREATMENT OF GASTROINTESTINAL DISORDERS, INFLAMMATION, CANCER AND OTHER DISORDERS” (priority 2015, published 2016)
